According to US6610270B1, “In vivo determination of metabolic function for use in therapy management” (Xanthus Life Sciences, Inc., priority 1998, dated 2003):
Read-outs that look alike come from different tables or passages of the source. Square brackets hold non-standard residues; d marks the D form. Peptide text beside a SMILES is read from it. * marks the point of attachment. pNA = O=[N+]([O-])c1ccc(N*)cc1; Abu = CC[C@H](N)C(=O)O

Assays:
bovine plasmin = molecular target: T1, bovine plasmin (Bos taurus, UniProt P06868); assay: metaprobe hydrolysis in solution by purified plasmin; type: biochemical; conditions: 1 WHO unit, pH 8.4, 37° C., 15 minutes
T1 construct: Freshly prepared solutions of bovine thrombin and bovine plasmin, from reconstituted lyophilized powders (Sigma); purchased Sigma
T1 sequence (P06868 584-812 limits assumed): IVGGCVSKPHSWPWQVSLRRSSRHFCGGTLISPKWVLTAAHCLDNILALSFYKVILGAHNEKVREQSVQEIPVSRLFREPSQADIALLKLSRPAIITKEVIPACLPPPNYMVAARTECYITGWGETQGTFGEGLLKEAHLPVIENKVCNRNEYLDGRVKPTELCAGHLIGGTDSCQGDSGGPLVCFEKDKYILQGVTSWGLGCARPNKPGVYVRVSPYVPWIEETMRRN
T1 sequence (P06868 104-583 limits assumed): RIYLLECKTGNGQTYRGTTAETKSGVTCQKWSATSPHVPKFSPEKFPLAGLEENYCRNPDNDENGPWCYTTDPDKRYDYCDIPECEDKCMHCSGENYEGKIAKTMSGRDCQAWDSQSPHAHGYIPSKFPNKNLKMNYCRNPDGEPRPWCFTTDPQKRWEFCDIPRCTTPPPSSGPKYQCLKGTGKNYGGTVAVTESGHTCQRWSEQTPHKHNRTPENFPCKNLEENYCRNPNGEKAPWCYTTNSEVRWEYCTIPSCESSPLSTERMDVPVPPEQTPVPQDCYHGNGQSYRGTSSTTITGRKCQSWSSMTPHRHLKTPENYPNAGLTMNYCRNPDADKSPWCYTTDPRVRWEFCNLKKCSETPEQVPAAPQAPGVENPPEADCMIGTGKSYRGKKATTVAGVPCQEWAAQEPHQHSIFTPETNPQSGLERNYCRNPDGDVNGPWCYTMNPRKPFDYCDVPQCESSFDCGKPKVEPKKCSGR
Protocol: (§1) The suitability of substrates I-VI was tested by the enzymatic assay protocol of Svendsen. Freshly prepared solutions of bovine thrombin and bovine plasmin, from reconstituted lyophilized powders (Sigma) were prepared in tris-imidazole buffer at pH 8.4 to deliver nominally 0.5 NIH unit per ml of thrombin and 1 WHO unit of plasmin. After preincubation for 5 minutes at 37° C., 0.25 ml of an 0.5 mMolar solution of each substrate in the same aqueous buffer was added and the separate reactions incubated for 15 minutes at the same temperature. Reaction was stopped by addition of 1:9 concentrated HCl:methanol. Concentration of the supernatant, ion exchange chromatography on Dowex-50, with 2N ammonia water eluant, as a further desalting and deproteinizing step, afforded the amino acid fraction resulting from the enzymatic hydrolysis of the metaprobes. The concentration of p-aminobenzoic[1-^13C] acid (with tetradeutero isotopolog as internal quantitation standard) and of L-2-aminobutyric[1-^13C] acid (with pentadeutero isotopolog as internal quantitation standard) were then analyzed by isotope dilution GC/MS using the N-trifluoroacetyl propyl ester derivatives and the total hydrolytic conversion expressed as […]

bovine thrombin = molecular target: T2, bovine thrombin (Bos taurus, UniProt P00735); assay: metaprobe hydrolysis in solution by purified thrombin; type: biochemical; conditions: 0.5 NIH unit per ml, pH 8.4, 37° C., 15 minutes
T2 construct: Freshly prepared solutions of bovine thrombin and bovine plasmin, from reconstituted lyophilized powders (Sigma); purchased Sigma
Protocol: as §1

[1] = molecular target: T3, Dipeptidyl peptidase IV (DPPIV) (Sus scrofa, UniProt P22411); assay: in-vitro Michaelis-Menten assay with dipeptidyl peptidase reference enzyme; type: biochemical; conditions: read-out: apparent Km
T3 construct: purchased Sigma-Aldrich D7052
T3 sequence (P22411 whole entry): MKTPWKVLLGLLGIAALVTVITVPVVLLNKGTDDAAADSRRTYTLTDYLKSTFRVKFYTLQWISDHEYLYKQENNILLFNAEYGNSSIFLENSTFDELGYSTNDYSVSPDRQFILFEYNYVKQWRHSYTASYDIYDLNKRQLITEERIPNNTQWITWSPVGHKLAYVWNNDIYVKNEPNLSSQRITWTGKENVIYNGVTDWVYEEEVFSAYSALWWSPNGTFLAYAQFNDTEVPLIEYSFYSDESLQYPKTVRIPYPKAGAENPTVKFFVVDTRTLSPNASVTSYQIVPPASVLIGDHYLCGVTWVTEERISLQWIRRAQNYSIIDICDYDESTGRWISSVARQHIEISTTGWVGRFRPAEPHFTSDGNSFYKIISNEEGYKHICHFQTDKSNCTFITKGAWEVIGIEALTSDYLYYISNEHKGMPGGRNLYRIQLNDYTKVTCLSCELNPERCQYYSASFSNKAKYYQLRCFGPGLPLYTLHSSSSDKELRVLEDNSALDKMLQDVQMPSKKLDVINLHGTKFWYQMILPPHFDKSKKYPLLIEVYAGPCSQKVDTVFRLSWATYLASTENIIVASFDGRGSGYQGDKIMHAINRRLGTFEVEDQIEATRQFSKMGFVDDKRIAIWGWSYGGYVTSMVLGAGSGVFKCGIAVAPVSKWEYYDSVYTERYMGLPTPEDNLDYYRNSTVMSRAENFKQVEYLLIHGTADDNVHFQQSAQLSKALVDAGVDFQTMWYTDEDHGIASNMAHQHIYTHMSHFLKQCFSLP
Excerpt: Dipeptidyl peptidase reference enzyme was purchased from Sigma-Aldrich (D7052) and assayed by the standard Michaelis-Menten method described in similar studies by Barth and co-workers (Heins, et al.; Rahfeld, et al.). […] Hydrolysis of the latter was quantitated by isotope dilution GC/MS of the N-trifluoroacetyl-propyl ester, using L-2-aminobutyric[^2H5] acid as the internal standard.

DPPIV = molecular target: T4, DPPIV (Rattus norvegicus, UniProt P14740); assay: plasma enzyme activity towards DPPIV substrates in septic rat model; type: biochemical, Sprague-Dawley rats
T4 construct: from tissue; host or cells: plasma of control and septic rats
T4 sequence (P14740 37-767 limits assumed): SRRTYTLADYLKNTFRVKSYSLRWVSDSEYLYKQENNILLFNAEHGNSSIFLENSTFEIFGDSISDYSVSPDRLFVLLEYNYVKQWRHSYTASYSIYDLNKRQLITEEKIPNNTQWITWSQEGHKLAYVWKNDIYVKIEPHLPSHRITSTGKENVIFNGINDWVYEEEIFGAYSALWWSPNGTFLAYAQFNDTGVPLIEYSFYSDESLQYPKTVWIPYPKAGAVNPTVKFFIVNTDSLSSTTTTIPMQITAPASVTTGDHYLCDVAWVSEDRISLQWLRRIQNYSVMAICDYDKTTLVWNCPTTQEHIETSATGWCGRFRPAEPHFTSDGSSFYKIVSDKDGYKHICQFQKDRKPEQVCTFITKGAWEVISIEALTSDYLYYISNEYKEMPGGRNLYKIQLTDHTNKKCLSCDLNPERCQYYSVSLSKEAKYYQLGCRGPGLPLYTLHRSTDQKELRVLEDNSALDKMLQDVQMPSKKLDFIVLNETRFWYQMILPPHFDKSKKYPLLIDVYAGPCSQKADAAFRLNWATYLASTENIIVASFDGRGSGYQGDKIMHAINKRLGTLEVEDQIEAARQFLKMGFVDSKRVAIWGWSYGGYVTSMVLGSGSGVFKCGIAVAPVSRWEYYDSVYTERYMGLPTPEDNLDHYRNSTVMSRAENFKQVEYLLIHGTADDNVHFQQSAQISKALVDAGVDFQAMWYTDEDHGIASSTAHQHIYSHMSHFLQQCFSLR
Protocol: (§2) Accordingly, ten male Sprague-Dawley rats, weighing approximately 300 gr., were injected with 3.5 mg/kg of GPA (prepared by sterile ultrafiltration in saline) and placed into metabolic cages for ^13CO2 collection (by alkaline trapping in seven 0.5 hour increments), in general as described by Vann et al. A blood draw of 0.4 ml was taken prior to the tracer administration to provide a baseline plasma titer for in vivo DPPIV activity. The following day, the rats were separated into a control panel and a test panel. Each of the three animals in the test panel was made septic (on Day 0) by intravenous (tail vein) adminstration of E. coli. Three control animals were sham injected with saline, and all were maintained in separate cages.
(§3) On day 2 and 6, and after a […], the administration of the “breath test” metaprobe and ^13CO2 collection was repeated. Equal aliquots of plasma were assayed for enzyme activity by spectrophotometry in two ways: a) using GP4NA (FIG. 16, structure I), a traditional and confirmatory approach, and b) using GPPaba (FIG. 16, structure III with R1 being the protonated free acid) by GC/MS quantitation of the p-aminobenzoic[1-^13C] acid (Paba, FIG. 16, structure IV) derived hydrolytically. The isotopic enrichment of the seven breath collections was measured by isotope ratio mass spectrometry, of the gas liberated after phosphoric acid protonation. The cumulative extent of metaprobe metabolism, as a per cent of dose taking into account the total CO2 production rate of each animal (Mohan et al.) was then calculated.
(§4) Also, over the 7 day experiment, the specific activity of plasma towards GP4NA in the control group averaged 29±6 nMol/min/ml while the septic titer rose to 43±7 and 49±6 on days two and six, respectively. The corresponding values of plasma activity towards GPPaba in the control group averaged 18±7 nMol/min/ml while the septic titer rose to 55±17 and 30±6 on days two and six, respectively. A “sham” breath test using 1.5 mg/kg administration of L-2-aminobutyric[1-^13C] acid in saline on day 3 of the experiment confirmed that oxidation of the release tag was similar in control and test groups, affording a cumulative oxidation of 65±8.3 and 72±9.4 per cent of dose recovery in 3 hours, respectively.

Aminopeptidase P (APP) [2] = conditions: Human BAL
Aminopeptidase P (APP) [3] = conditions: Rat Plasma
plasmin = molecular target: T5, plasmin (Rattus norvegicus, UniProt Q01177); assay: plasmin metaprobe hydrolysis in whole blood, septic rat model; type: biochemical
T5 construct: from tissue; host or cells: unfractionated whole blood of control and septic rats
T5 sequence (Q01177 582-812 limits assumed): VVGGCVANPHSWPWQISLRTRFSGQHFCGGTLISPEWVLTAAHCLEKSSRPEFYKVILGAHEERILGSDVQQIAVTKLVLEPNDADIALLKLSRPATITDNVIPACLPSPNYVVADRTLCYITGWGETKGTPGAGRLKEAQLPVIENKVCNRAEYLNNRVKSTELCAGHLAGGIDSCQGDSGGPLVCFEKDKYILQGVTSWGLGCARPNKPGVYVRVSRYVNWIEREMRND
T5 sequence (Q01177 97-581 limits assumed): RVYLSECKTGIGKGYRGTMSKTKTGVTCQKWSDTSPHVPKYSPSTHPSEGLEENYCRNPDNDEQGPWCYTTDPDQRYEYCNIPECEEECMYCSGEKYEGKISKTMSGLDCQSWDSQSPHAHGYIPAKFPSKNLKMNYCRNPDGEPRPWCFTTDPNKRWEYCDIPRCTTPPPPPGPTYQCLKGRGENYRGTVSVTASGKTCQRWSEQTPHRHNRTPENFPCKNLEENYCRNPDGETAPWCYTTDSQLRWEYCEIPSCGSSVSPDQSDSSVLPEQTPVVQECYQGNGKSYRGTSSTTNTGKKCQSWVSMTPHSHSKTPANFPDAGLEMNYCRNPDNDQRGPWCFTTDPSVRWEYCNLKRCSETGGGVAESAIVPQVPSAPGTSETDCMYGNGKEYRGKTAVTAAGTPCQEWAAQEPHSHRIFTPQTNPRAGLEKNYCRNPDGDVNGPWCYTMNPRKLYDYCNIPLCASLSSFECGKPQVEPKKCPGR

[4] = molecular target: T6, Dipeptidyl Peptidase IV (DPPIV/CD26) (Rattus norvegicus, UniProt P14740); assay: DPPIV metaprobe breath test in the septic rat; type: in vivo, Sprague-Dawley rats; conditions: 3.5 mg/kg injected
T6 construct: from tissue; host or cells: whole rat in vivo (injected dose, 13CO2 collection)
T6 sequence (P14740 whole entry): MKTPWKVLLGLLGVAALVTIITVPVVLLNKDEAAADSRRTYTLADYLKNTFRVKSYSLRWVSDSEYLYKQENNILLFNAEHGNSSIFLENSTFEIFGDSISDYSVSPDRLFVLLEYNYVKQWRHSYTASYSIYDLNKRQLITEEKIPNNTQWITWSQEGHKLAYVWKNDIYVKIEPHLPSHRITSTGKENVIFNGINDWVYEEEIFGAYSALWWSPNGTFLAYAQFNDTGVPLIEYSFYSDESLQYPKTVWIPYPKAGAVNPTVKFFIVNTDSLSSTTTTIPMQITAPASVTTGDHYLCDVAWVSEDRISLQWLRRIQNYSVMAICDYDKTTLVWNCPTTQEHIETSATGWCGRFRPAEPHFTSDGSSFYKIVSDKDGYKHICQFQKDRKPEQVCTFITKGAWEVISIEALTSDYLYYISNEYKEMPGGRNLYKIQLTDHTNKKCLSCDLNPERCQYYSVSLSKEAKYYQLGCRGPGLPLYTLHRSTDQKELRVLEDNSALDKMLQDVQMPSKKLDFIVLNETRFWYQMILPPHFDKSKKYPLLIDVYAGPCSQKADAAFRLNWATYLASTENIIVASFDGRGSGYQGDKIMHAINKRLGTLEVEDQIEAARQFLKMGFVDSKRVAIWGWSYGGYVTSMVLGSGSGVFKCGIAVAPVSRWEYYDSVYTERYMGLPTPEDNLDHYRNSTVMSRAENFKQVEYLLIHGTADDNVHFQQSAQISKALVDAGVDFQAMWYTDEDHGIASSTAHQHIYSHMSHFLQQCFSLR
Protocol: as §2, §3

[5] = sham breath test with free core tracer in septic rat model; type: in vivo, Sprague-Dawley rats; conditions: 1.5 mg/kg in saline, day 3, in 3 hours
Protocol: as §4

thrombin = molecular target: T7, thrombin (Rattus norvegicus, UniProt P18292); assay: thrombin metaprobe hydrolysis in whole blood, septic rat model; type: biochemical
T7 construct: from tissue; host or cells: unfractionated whole blood of control and septic rats

thrombin and plasmin = assay: net coagulant potential (NCP) in whole blood, septic rat model; type: biochemical
[6] = system: nitric oxide synthase (NOS)
Excerpt: These studies constitute part of a continuing series intended to extend the protocols initiated by Castillo et al. (1996) and depend on intravenous metaprobe administration and mass spectral analysis of the resulting analytes extracted from plasma.

[7] = control group, average over the 7 day experiment

## CCO[13C](=O)[C@H](CC)NC(=O)[C@H](CCCNC(=N)N)NC(=O)[C@@H]1CCCN1C(=O)[C@@H](Cc1ccccc1)NC(C)=O [Substrate II, N-acetyl-d-phenylalanyl-L-prolyl-L-arginyl-L-2-aminobutyric[1-^13C] acid, ethyl ester]
Bovine plasmin
  Product formed, Plasmin: 2.3 nmol/min/mL
Bovine thrombin
  Product formed, Thrombin: 6.9 nmol/min/mL

## CCO[13C](=O)c1ccc(NC(=O)C(CCCNC(=N)N)NC(=O)C2CCCN2C(=O)CNC(C)=O)cc1 [Substrate III, N-acetyl-glycyl-L-prolyl-L-arginyl-p-aminobenzoic[1-^13C] acid, ethyl ester]
Bovine plasmin
  Product formed, Plasmin: 3.6 nmol/min/mL
Bovine thrombin
  Product formed, Thrombin: 6.6 nmol/min/mL

## CCO[13C](=O)c1ccc(NC(=O)[C@H](CCCNC(=N)N)NC(=O)[C@@H]2CCCN2C(=O)[C@@H](Cc2ccccc2)NC(C)=O)cc1 [Substrate I, N-acetyl-d-phenylalanyl-L-prolyl-L-arginyl-p-aminobenzoic[1-^13C] acid, ethyl ester]
Bovine plasmin
  Product formed, Plasmin: 1.8 nmol/min/mL
Bovine thrombin
  Product formed, Thrombin: 6.0 nmol/min/mL

## NCC(=O)N1CCC[C@H]1C(=O)Nc1ccc([N+](=O)[O-])cc1 [GP4NA, Glycyl-Prolyl-4-nitro-anilide, reference compound] (H-Gly-Pro-pNA)
[1]
  Km: 130 µM
DPPIV; [7]
  specific activity of plasma towards substrate: 29 ± 6 nmol/min/mL
DPPIV; septic, day six
  specific activity of plasma towards substrate: 49 ± 6 nmol/min/mL
DPPIV; septic, day two
  specific activity of plasma towards substrate: 43 ± 7 nmol/min/mL

## CCOC(=O)[C@@H]1CCCN1C(=O)[C@@H]1CCCN1[13C](=O)CN [Aminopeptidase P Metaprobe, glycyl[1-^13C]-L-prolyl-L-proline, ethyl ester]
Aminopeptidase P (APP) [2]; Control, two hour incubation at 37° C.
  % Dose metabolized: 22 ± 4 % Dose
Aminopeptidase P (APP) [2]; Test sample, ARDS
  % Dose metabolized: 44 ± 14 % Dose
Aminopeptidase P (APP) [3]; Control
  % Dose metabolized: 5 ± 4 % Dose
Aminopeptidase P (APP) [3]; Test sample, Sepsis
  % Dose metabolized: 28 ± 7 % Dose

## CCO[13C](=O)[C@H](CC)NC(=O)[C@H](CCCCN)NC(=O)[C@H](CC(C)C)NC(=O)[C@@H](N)CC(C)C [Substrate VI, L-leucyl-L-leucyl-L-lysyl-L-2-aminobutyric[1-^13C] acid, ethyl ester]
Bovine plasmin
  Product formed, Plasmin: 8.1 nmol/min/mL
plasmin; Control, Day 0
  Percent of Metaprobe Dose Metabolized: 11 ± 5%
plasmin; Septic, Day 2
  Percent of Metaprobe Dose Metabolized: 14 ± 7%
plasmin; Septic, Day 6
  Percent of Metaprobe Dose Metabolized: 52 ± 17%
plasmin; Septic, Day 10
  Percent of Metaprobe Dose Metabolized: 23 ± 12%
Bovine thrombin
  Product formed, Thrombin: 0.4 nmol/min/mL

## CCO[13C](=O)c1ccc(NC(=O)[C@H](CCCCN)NC(=O)[C@H](CC(C)C)NC(=O)[C@@H](N)CC(C)C)cc1 [Substrate V, L-leucyl-L-leucyl-L-lysyl-p-aminobenzoic[1-^13C] acid, ethyl ester]
Bovine plasmin
  Product formed, Plasmin: 7.2 nmol/min/mL
Bovine thrombin
  Product formed, Thrombin: 0.3 nmol/min/mL

## CC[C@H](NC(=O)[C@@H]1CCCN1C(=O)CN)[13C](=O)O [GPA, glycyl-prolyl-2-aminobutyric[1-^13C] acid]
[4]; Day 1, CONTROL
  Cumulative Per Cent of Dose Exhaled in 3 Hours: 4.3 (± 0.8) Per Cent of Dose
[4]; Day 1, SEPSIS
  Cumulative Per Cent of Dose Exhaled in 3 Hours: 5.7 (± 1.4) Per Cent of Dose
[4]; Day 2, CONTROL
  Cumulative Per Cent of Dose Exhaled in 3 Hours: 8.9 (± 1.3) Per Cent of Dose
[4]; Day 2, SEPSIS
  Cumulative Per Cent of Dose Exhaled in 3 Hours: 22.5 (± 5.3) Per Cent of Dose
[4]; Day 6, CONTROL
  Cumulative Per Cent of Dose Exhaled in 3 Hours: 4.9 (± 0.8) Per Cent of Dose
[4]; Day 6, SEPSIS
  Cumulative Per Cent of Dose Exhaled in 3 Hours: 9.2 (± 6.3) Per Cent of Dose

## gylcyl-prolyl-p-aminobenzoic[1-^13C] acid [GPPaba]
DPPIV; [7]
  specific activity of plasma towards substrate: 18 ± 7 nmol/min/mL
DPPIV; septic, day six
  specific activity of plasma towards substrate: 30 ± 6 nmol/min/mL
DPPIV; septic, day two
  specific activity of plasma towards substrate: 55 ± 17 nmol/min/mL

## CC[C@H](N)[13C](=O)O [L-2-aminobutyric[1-^13C] acid]
[5]; control group
  cumulative oxidation, per cent of dose recovery: 65±8.3 per cent of dose
[5]; test (septic) group
  cumulative oxidation, per cent of dose recovery: 72±9.4 per cent of dose

## CC[C@H](NC(=O)[C@@H]1CCCN1C(=O)CN)C(=O)O [GPA, glycyl-prolyl-2-aminobutyric[1-^13C] acid] (H-Gly-Pro-[Abu]-OH)
[1]
  Km: 200 µM

## CCO[13C](=O)[C@H](CC)NC(=O)[C@H](CCCNC(=N)N)NC(=O)[C@@H]1CCCN1C(=O)CNC(C)=O [Substrate IV, N-acetyl-glycyl-L-prolyl-L-arginyl-L-2-aminobutyric[1-^13C] acid, ethyl ester]
Bovine plasmin
  Product formed, Plasmin: 3.1 nmol/min/mL
thrombin; Control, Day 0
  Percent of Metaprobe Dose Metabolized: 22 ± 9%
thrombin; Septic, Day 2
  Percent of Metaprobe Dose Metabolized: 76 ± 15%
thrombin; Septic, Day 6
  Percent of Metaprobe Dose Metabolized: 39 ± 12%
thrombin; Septic, Day 10
  Percent of Metaprobe Dose Metabolized: 25 ± 10%
Thrombin and plasmin; Control, Day 0
  NCP, net coagulant potential (difference between metaprobe IV and VI): 11 ± 10%
Thrombin and plasmin; Septic, Day 2
  NCP, net coagulant potential (difference between metaprobe IV and VI): 62 ± 17%
Thrombin and plasmin; Septic, Day 6
  NCP, net coagulant potential (difference between metaprobe IV and VI): −13 ± 21%
Thrombin and plasmin; Septic, Day 10
  NCP, net coagulant potential (difference between metaprobe IV and VI): 2 ± 15%
Bovine thrombin
  Product formed, Thrombin: 7.8 nmol/min/mL

## N[C@@H](CCCN=C([15NH2])[15NH2])C(=O)O [L-arginine[guanidino-^15N2]]
[6]; 2 day average in ICU, rapid recovery, no sepsis, n = 4
  NOPI2 on Admission: 0.3 +/− 0.14 (n = 4)
[6]; 4 day average in ICU, recovery, sepsis treated successfully, n = 4
  NOPI2 on Admission: 2.99 +/− 1.24 (n = 4)
[6]; 7 day average in ICU, death from complications of sepsis and trauma, n = 3
  NOPI2 on Admission: 6.64 +/− 1.92 (n = 3)
[6]; Normal Control, healthy (not admitted), n = 4
  NOPI2 on Admission: 0.2 +/− 0.15 (n = 4)
